Source: BigSolDB 2.1

## CC(C)(C)C(O)(CCc1ccc(Cl)cc1)Cn1cncn1 (stereo not given)
In 2-butanone, 278.15 K
  solubility (mole fraction): 0.0404
In 2-butanone, 280.65 K
  solubility (mole fraction): 0.0439
In 2-butanone, 283.15 K
  solubility (mole fraction): 0.0476
In 2-butanone, 285.65 K
  solubility (mole fraction): 0.0524
In 2-butanone, 288.15 K
  solubility (mole fraction): 0.0569
In 2-butanone, 290.65 K
  solubility (mole fraction): 0.0612
In 2-butanone, 293.15 K
  solubility (mole fraction): 0.0659
In 2-butanone, 295.65 K
  solubility (mole fraction): 0.0709
In 2-butanone, 298.15 K
  solubility (mole fraction): 0.076
In 2-butanone, 300.65 K
  solubility (mole fraction): 0.0815
In 2-butanone, 303.15 K
  solubility (mole fraction): 0.0869
In 2-butanone, 305.65 K
  solubility (mole fraction): 0.0928
In 2-butanone, 308.15 K
  solubility (mole fraction): 0.0987
In 2-butanone, 310.65 K
  solubility (mole fraction): 0.106
In 2-butanone, 313.15 K
  solubility (mole fraction): 0.113
In acetone, 278.15 K
  solubility (mole fraction): 0.0304
In acetone, 280.65 K
  solubility (mole fraction): 0.0336
In acetone, 283.15 K
  solubility (mole fraction): 0.038
In acetone, 285.65 K
  solubility (mole fraction): 0.0416
In acetone, 288.15 K
  solubility (mole fraction): 0.0461
In acetone, 290.65 K
  solubility (mole fraction): 0.0507
In acetone, 293.15 K
  solubility (mole fraction): 0.0562
In acetone, 295.65 K
  solubility (mole fraction): 0.0613
In acetone, 298.15 K
  solubility (mole fraction): 0.0668
In acetone, 300.65 K
  solubility (mole fraction): 0.0723
In acetone, 303.15 K
  solubility (mole fraction): 0.0789
In acetone, 305.65 K
  solubility (mole fraction): 0.0851
In acetone, 308.15 K
  solubility (mole fraction): 0.0925
In acetone, 310.65 K
  solubility (mole fraction): 0.101
In acetone, 313.15 K
  solubility (mole fraction): 0.11
In acetonitrile, 278.15 K
  solubility (mole fraction): 0.00516
In acetonitrile, 280.65 K
  solubility (mole fraction): 0.00585
In acetonitrile, 283.15 K
  solubility (mole fraction): 0.00662
In acetonitrile, 285.65 K
  solubility (mole fraction): 0.00746
In acetonitrile, 288.15 K
  solubility (mole fraction): 0.00838
In acetonitrile, 290.65 K
  solubility (mole fraction): 0.00942
In acetonitrile, 293.15 K
  solubility (mole fraction): 0.0107
In acetonitrile, 295.65 K
  solubility (mole fraction): 0.012
In acetonitrile, 298.15 K
  solubility (mole fraction): 0.0134
In acetonitrile, 300.65 K
  solubility (mole fraction): 0.0149
In acetonitrile, 303.15 K
  solubility (mole fraction): 0.0165
In acetonitrile, 305.65 K
  solubility (mole fraction): 0.0186
In acetonitrile, 308.15 K
  solubility (mole fraction): 0.0208
In acetonitrile, 310.65 K
  solubility (mole fraction): 0.0233
In acetonitrile, 313.15 K
  solubility (mole fraction): 0.0261
In ethanol, 278.15 K
  solubility (mole fraction): 0.0103
In ethanol, 280.65 K
  solubility (mole fraction): 0.0118
In ethanol, 283.15 K
  solubility (mole fraction): 0.0136
In ethanol, 285.65 K
  solubility (mole fraction): 0.0157
In ethanol, 288.15 K
  solubility (mole fraction): 0.0179
In ethanol, 290.65 K
  solubility (mole fraction): 0.0203
In ethanol, 293.15 K
  solubility (mole fraction): 0.0234
In ethanol, 295.65 K
  solubility (mole fraction): 0.0264
In ethanol, 298.15 K
  solubility (mole fraction): 0.0299
In ethanol, 300.65 K
  solubility (mole fraction): 0.0333
In ethanol, 303.15 K
  solubility (mole fraction): 0.037
In ethanol, 305.65 K
  solubility (mole fraction): 0.0411
In ethanol, 308.15 K
  solubility (mole fraction): 0.0463
In ethanol, 310.65 K
  solubility (mole fraction): 0.0515
In ethanol, 313.15 K
  solubility (mole fraction): 0.0572
In ethyl acetate, 278.15 K
  solubility (mole fraction): 0.0244
In ethyl acetate, 280.65 K
  solubility (mole fraction): 0.027
In ethyl acetate, 283.15 K
  solubility (mole fraction): 0.03
In ethyl acetate, 285.65 K
  solubility (mole fraction): 0.0336
In ethyl acetate, 288.15 K
  solubility (mole fraction): 0.0377
In ethyl acetate, 290.65 K
  solubility (mole fraction): 0.0421
In ethyl acetate, 293.15 K
  solubility (mole fraction): 0.0466
In ethyl acetate, 295.65 K
  solubility (mole fraction): 0.0512
In ethyl acetate, 298.15 K
  solubility (mole fraction): 0.0564
In ethyl acetate, 300.65 K
  solubility (mole fraction): 0.0612
In ethyl acetate, 303.15 K
  solubility (mole fraction): 0.0668
In ethyl acetate, 305.65 K
  solubility (mole fraction): 0.0734
In ethyl acetate, 308.15 K
  solubility (mole fraction): 0.0797
In ethyl acetate, 310.65 K
  solubility (mole fraction): 0.0867
In ethyl acetate, 313.15 K
  solubility (mole fraction): 0.0945
In isopropanol, 278.15 K
  solubility (mole fraction): 0.00877
In isopropanol, 280.65 K
  solubility (mole fraction): 0.0103
In isopropanol, 283.15 K
  solubility (mole fraction): 0.012
In isopropanol, 285.65 K
  solubility (mole fraction): 0.0138
In isopropanol, 288.15 K
  solubility (mole fraction): 0.0159
In isopropanol, 290.65 K
  solubility (mole fraction): 0.018
In isopropanol, 293.15 K
  solubility (mole fraction): 0.0204
In isopropanol, 295.65 K
  solubility (mole fraction): 0.023
In isopropanol, 298.15 K
  solubility (mole fraction): 0.026
In isopropanol, 300.65 K
  solubility (mole fraction): 0.0293
In isopropanol, 303.15 K
  solubility (mole fraction): 0.0328
In isopropanol, 305.65 K
  solubility (mole fraction): 0.0367
In isopropanol, 308.15 K
  solubility (mole fraction): 0.0416
In isopropanol, 310.65 K
  solubility (mole fraction): 0.0462
In isopropanol, 313.15 K
  solubility (mole fraction): 0.0519
In methanol, 278.15 K
  solubility (mole fraction): 0.0154
In methanol, 280.65 K
  solubility (mole fraction): 0.0174
In methanol, 283.15 K
  solubility (mole fraction): 0.0196
In methanol, 285.65 K
  solubility (mole fraction): 0.0225
In methanol, 288.15 K
  solubility (mole fraction): 0.0253
In methanol, 290.65 K
  solubility (mole fraction): 0.0284
In methanol, 293.15 K
  solubility (mole fraction): 0.032
In methanol, 295.65 K
  solubility (mole fraction): 0.0359
In methanol, 298.15 K
  solubility (mole fraction): 0.04
In methanol, 300.65 K
  solubility (mole fraction): 0.0444
In methanol, 303.15 K
  solubility (mole fraction): 0.0497
In methanol, 305.65 K
  solubility (mole fraction): 0.0551
In methanol, 308.15 K
  solubility (mole fraction): 0.06
In methanol, 310.65 K
  solubility (mole fraction): 0.0659
In methanol, 313.15 K
  solubility (mole fraction): 0.0724
In n-propanol, 278.15 K
  solubility (mole fraction): 0.00704
In n-propanol, 280.65 K
  solubility (mole fraction): 0.00825
In n-propanol, 283.15 K
  solubility (mole fraction): 0.00953
In n-propanol, 285.65 K
  solubility (mole fraction): 0.0112
In n-propanol, 288.15 K
  solubility (mole fraction): 0.0133
In n-propanol, 290.65 K
  solubility (mole fraction): 0.0153
In n-propanol, 293.15 K
  solubility (mole fraction): 0.0175
In n-propanol, 295.65 K
  solubility (mole fraction): 0.0201
In n-propanol, 298.15 K
  solubility (mole fraction): 0.0227
In n-propanol, 300.65 K
  solubility (mole fraction): 0.0258
In n-propanol, 303.15 K
  solubility (mole fraction): 0.0296
In n-propanol, 305.65 K
  solubility (mole fraction): 0.0338
In n-propanol, 308.15 K
  solubility (mole fraction): 0.0388
In n-propanol, 310.65 K
  solubility (mole fraction): 0.0444
In n-propanol, 313.15 K
  solubility (mole fraction): 0.0498
In toluene, 278.15 K
  solubility (mole fraction): 0.0217
In toluene, 280.65 K
  solubility (mole fraction): 0.0244
In toluene, 283.15 K
  solubility (mole fraction): 0.0276
In toluene, 285.65 K
  solubility (mole fraction): 0.0311
In toluene, 288.15 K
  solubility (mole fraction): 0.0354
In toluene, 290.65 K
  solubility (mole fraction): 0.0404
In toluene, 293.15 K
  solubility (mole fraction): 0.0453
In toluene, 295.65 K
  solubility (mole fraction): 0.0512
In toluene, 298.15 K
  solubility (mole fraction): 0.0578
In toluene, 300.65 K
  solubility (mole fraction): 0.0644
In toluene, 303.15 K
  solubility (mole fraction): 0.0712
In toluene, 305.65 K
  solubility (mole fraction): 0.079
In toluene, 308.15 K
  solubility (mole fraction): 0.0873
In toluene, 310.65 K
  solubility (mole fraction): 0.0964
In toluene, 313.15 K
  solubility (mole fraction): 0.105
